Six molecules from US20150344457A1, “METHODS OF INHIBITING PRMT5” (EPIZYME, INC., priority 2012, published 2015) can be followed below.

The assay has as its target T1, PRMT5/MEP50 (Homo sapiens, UniProt O14744).
T1 construct: Expressed full-length human Flag-PRMT5/6His-MeP50 protein complex was purified; made in house; host or cells: Spodoptera frugiperda (SF9) insect cells, baculovirus (pDEST8)
Briefly: PRMT5 Biochemical Assay (PRMT5/MEP50 enzyme assay on peptide substrate, 3H-SAM Flashplate). The settings on record: read-out: Biochemical IC50.

Read-outs that look alike come from different tables or passages of the source.

T1 sequence (O14744 with tags, fused parts or gaps): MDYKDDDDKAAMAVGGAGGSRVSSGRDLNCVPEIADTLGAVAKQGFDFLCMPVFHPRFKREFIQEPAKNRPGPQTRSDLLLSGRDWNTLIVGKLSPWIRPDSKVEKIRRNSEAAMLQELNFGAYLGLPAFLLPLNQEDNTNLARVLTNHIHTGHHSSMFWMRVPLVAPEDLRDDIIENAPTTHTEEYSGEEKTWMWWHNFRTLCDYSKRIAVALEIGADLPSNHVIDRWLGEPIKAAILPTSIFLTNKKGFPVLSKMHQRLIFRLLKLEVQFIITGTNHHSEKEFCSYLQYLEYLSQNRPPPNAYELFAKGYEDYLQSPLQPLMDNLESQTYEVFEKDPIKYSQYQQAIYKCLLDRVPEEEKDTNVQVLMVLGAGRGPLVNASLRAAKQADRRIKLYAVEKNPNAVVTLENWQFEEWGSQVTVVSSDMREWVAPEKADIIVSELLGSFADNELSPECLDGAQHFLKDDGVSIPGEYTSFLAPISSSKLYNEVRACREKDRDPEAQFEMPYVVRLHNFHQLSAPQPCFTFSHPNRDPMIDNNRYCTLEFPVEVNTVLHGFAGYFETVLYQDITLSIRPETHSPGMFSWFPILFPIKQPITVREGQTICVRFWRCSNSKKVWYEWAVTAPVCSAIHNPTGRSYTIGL
T1 sequence (Q9BQA1 with tags, fused parts or gaps partner limits assumed): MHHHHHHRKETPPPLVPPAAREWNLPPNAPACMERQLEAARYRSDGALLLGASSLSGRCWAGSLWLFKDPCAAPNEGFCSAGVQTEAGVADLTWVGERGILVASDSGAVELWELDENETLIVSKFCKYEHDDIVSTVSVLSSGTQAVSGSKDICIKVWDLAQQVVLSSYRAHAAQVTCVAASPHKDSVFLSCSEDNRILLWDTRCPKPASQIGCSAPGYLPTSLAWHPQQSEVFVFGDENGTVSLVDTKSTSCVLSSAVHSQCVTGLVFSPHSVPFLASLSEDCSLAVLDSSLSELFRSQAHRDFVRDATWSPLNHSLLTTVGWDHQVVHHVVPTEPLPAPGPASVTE

The IC50 is the midpoint of a concentration-inhibition curve. For `Cn1ccc2cnc(-c3cccc(OCC(O)CN4CCc5ccccc5C4)c3)nc21` (stereo not drawn) [Compound D141], the IC50 (Table D-2) is < 100 nM.

With `CN(C)c1ccc(-c2cccc(OCC(O)CN3CCc4ccccc4C3)c2)cc1` (stereo not drawn) [Compound D151], the IC50 (Table D-2) is 101 to 1000 nM.

In the case of `OC(COc1cccc(-c2ccc3ncn(C4CCOCC4)c3c2)c1)CN1CCc2ccccc2C1` (stereo not drawn) [Compound D103], the IC50 (Table D-2) fell in the range of 101 to 1000 nM.

With `Cn1nccc1C(=O)Nc1cccc(OCC(O)CN2CCc3ccccc3C2)c1` (stereo not drawn) [Compound D160], the IC50 (Table D-2) was 1000 to 10000 nM.

As to `Cn1ncc2c(OCC(=O)NCC(O)CN3CCc4ccccc4C3)cccc21` (stereo not drawn) [Compound A82], the IC50 (Table A-2, PRMT5/MEP50 4 nM, 3H-SAM 75 nM, peptide 40 nM) was < 100 nM.

`Cn1cnc2ccc(-c3ccnc(NCC(O)CN4CCc5ccccc5C4)c3)cc21` (stereo not drawn) [Compound D118]: where the note is “Table D-2”, the IC50 is < 100 nM.
